Patent US8952025B2, “Multifunctional radical quenchers and their uses” (Arizona Board of Regents, A Body Corporate of the State of …, priority 2010, dated 2015)
Entries after “also recorded” stand apart in the source; their conditions may differ. Values belong to the compound of their own block, whether it stands above or below them.

Key:
CEM leukemia cells [1] = assay: Mitochondrial membrane potential (Δψm) assay, TMRM, FACS; type: cell-based, human; conditions: pretreatment 0.5, 1 or 2.5 μM overnight, DEM
Method: Measurement of Mitochondrial Membrane Potential (Δψm)(FACS). For the determination of Δψm, CEM leukemia cells were pre-treated with or without the test compounds. The cells were treated with 5 mM DEM for 120 minutes, collected by centrifugation at 300×g for 3 minutes and then washed twice with phosphate buffered saline. The cells were re-suspended in HSSB buffer and incubated at 37° C. in the dark for 15 minutes with 250 nM TMRM (a cationic dye which accumulates within mitochondria in accordance with the Δψm Nernst potential). Cells were collected by centrifugation at 300×g for 3 minutes and then washed twice with phosphate buffered saline. The samples were analyzed immediately by flow cytometry using 488 nm excitation laser and the FL2-H channel. The results obtained were verified in three independent experiments. The protonophore FCCP (30 μM) was used to dissipate the chemiosmotic proton gradient (ΔμH^+) and served as a control for loss of Δψm. In each analysis, 10,000 events were recorded.

CEM cells [2] = assay: Reactive oxygen species (ROS) assay, DCFH-DA, DEM-treated cells; type: cell-based, human; conditions: for suppression of ROS (DCFH-DA): 0.25 μM for 15 hours, DEM 40 min, CCRF-CEM cells; for protection against ROS production (DCF fluorescence): 5 μM, pretreatment 4 or 24 h
Text: Cellular ROS production can be monitored using 2′,7′-dichlorodihydrofluorescein diacetate (DCFH-DA) (LeBel et al. (1992) Chem. Res. Toxicol. 5, 227-231) (Molecular Probes, Eugene, Oreg., USA), a membrane permeable and oxidant-sensitive fluorescent dye. DCFH-DA is a non-fluorescent derivative of fluorescein that emits fluorescence after being oxidized by hydrogen peroxide and other ROS. The emitted fluorescence is directly proportional to the concentration of hydrogen peroxide. DCFH-DA is nonionic and nonpolar and is easily taken up by cells. Once inside the cell, DCFH-DA is hydrolyzed by cellular esterases to non-fluorescent DCFH which traps the dye in the cell. In the presence of ROS including hydrogen peroxide, DCFH is oxidized to the highly fluorescent compound dichlorofluorescein (DCF). The intracellular DCF fluorescence is used as an index of cellular ROS production.
Cellular oxidative stress was induced by pharmacological depletion of glutathione (GSH) using the chemical diethylmaleate (DEM). ROS production was assessed by monitoring DCF fluorescence. Leukemic CEM cells (ATCC®, catalogue number CRL-2264) were cultured in RPMI (GIBCO, Grand island, N.Y., USA) with 10% FCS, 2 mM glutamine (HyClone, South Logan, Utah, USA) and 1% penicillin-streptomycin mix antibiotics (Cellgro, Manassan, Va., USA) supplements. Cells were maintained in the log phase at a concentration of between 1×10^5 and 1×10^6 cells/mL. CEM cells (1×10^6 cell/mL) were plated (1 mL) in twelve well plate and treated with the invention compounds (final concentration 1 and 5 μM), and incubated for two hours at 37° C., 5% CO2. The compounds tested were prepared by first making stock solutions (2.5 mM) in dimethylsulfoxide (DMSO). Cells were treated with 5 mM DEM for 30 minutes and collected by centrifugation at 300×g for 3 min and then washed twice with Hanks' Balanced Salt Solution (HSSB) buffer (Sigma, St. Louis, Mo. USA). Cells were resuspended in HSSB buffer+10 mM glucose and incubated at 37° C. in the dark for 20 min with 10 μM DCFH-DA. Cells were collected by centrifugation at 300×g for 3 min and then washed twice with HSSB buffer. The samples were analyzed immediately by flow cytometry (Becton-Dickinson FACS Caliber), (Cell Quest software, BD Biosciences) using 488 nm excitation laser and FL1-H channel 538 nm emission filter. In each analysis, 10,000 events were recorded after cell debris were electronically gated out. Results obtained were verified by repeating experiments N=3 independent experiments. Authentic hydrogen peroxide was used as a positive control.

CEM cells [3] = assay: Trypan blue cell viability assay, DEM-treated cells; type: cell-based, human; conditions: overnight incubation, then 5 mM DEM, 3 h
Method: Cell viability determined by trypan blue exclusion assay: This technique was used to assess the cytoprotective effects of the invention compounds in cultured cells pharmacologically treated to induce cell death by GSH depletion. DEM was used to deplete cellular GSH and induce oxidative stress. The viability of DEM-treated CEM cells was determined by their ability to exclude the dye trypan blue. Viable cells exclude trypan blue; whereas, non-viable cells take up the dye and stain blue. Briefly, CEM cells were grown in RPMI 1640 medium (GIBCO, Grand island, N.Y., USA) supplemented with 10% fetal calf serum, 2 mM glutamine (HyClone, South Logan, Utah, USA), 1% penicillin-streptomycin mix (Cellgro, Manassan, Va., USA). Cells were seeded at a density of 1×10^6 cells/mL and treated with different concentrations of the invention compounds. Cells were incubated at 37° C. in a humidified atmosphere of 5% CO2 in air for three hours with 5 mM DEM. Cell viability was determined by staining cells with 0.4% trypan blue using a hemacytometer. At least 500 cells were counted for each experimental group. At the time of assay, >95% of DEM-treated cells were trypan blue positive; whereas, in non-DEM treated control cell cultures >95% cells were viable. Cell viability was expressed as the percentage of control. Data are expressed as means±S.E.M (n=3).

[4] = C11-BODIPY581/591 oxidation lipid peroxidation assay in liposomes; conditions: 10 mM AAPH, phospholipid liposomes, phosphate buffer, 40° C.
Method: To overcome the problem of spectral overlap using cis-parinaric acid, a fluorescence assay for lipid peroxidation using a lipophilic probe belonging to the BODIPY class of fluorescent dyes was used. C11-BODIPY^581/591 (4,4-difluoro-5(4-phenyl-1,3-butadienyl)-4-bora-3a,4a-diaza-s-indacene-3-propionic acid) fluorescence shifts from red to green upon oxidation. C11-BODIPY^581/591 (Molecular Probes, Eugene, Oreg., USA) stock solution concentrations were determined by measuring the absorption of C11-BODIPY^581/591 at 582 nm using a molar extinction coefficient of 140,000 mol^−1 cm^−1(R. P. Haugland, (1999) Handbook of Fluorescent Probes and Research Chemicals, Molecular Probes, Inc., Eugene, Oreg.). The lipid peroxidation inducer 2,2′-Azobis (2-amidino-propane dihydrochloride) (AAPH) and the antioxidant compound α-tocopherol were obtained from Sigma (St. Louis, Mo., USA). Phospholipid bilayers were prepared from 1-stearoyl-2-oleoyl-phosphatidylcholine (SOPC) and 1,2-dilinoleoyl-phosphatidylcholine (DLPC) and were purchased from Avanti® polar lipids, INC (Alabaster, Ala., USA).
Phosphotidylcholine (PC) liposomes were prepared as described before (Guey-Shuang et al. (1982) Lipids. 17, 403-413). Briefly, DLPC (25 mg) and SOPC (25 mg) were dissolved in chloroform and the solvent was removed by nitrogen evaporation (˜2 hours to give a thin film of PC in a round bottom flask. The lipid film was hydrated with 50 mL of 10 mM Tris-HCl (pH 7.4), 100 mM KCl, shaken and sonicated for 15 seconds. The liposomes obtained were filtered several times through 0.2 μM membrane filter.
C11 BODIPY^581/591 was incorporated into liposomes and oxidized by peroxyl radicals derived from the decomposition of AAPH in presence and absence of the compounds. […] Liposomes were pre-incubated for 10 min with 200 nM C11 BODIPY^581/591 to allow their incorporation into the lipid phase of the liposomes. After the addition of AAPH (10 mM) the decay of red fluorescence was followed at λ exc=570 nm, λ em=600 nm. Relative fluorescence units were normalized to 100% intensity. Results obtained were verified by repeating experiments N=3 independent experiments.

CEM leukemia cells [5] = assay: C11-BODIPY581/591 oxidation in cell culture (lipid peroxidation); type: cell-based, human; conditions: 2.5 or 1 μM, pretreatment 4 or 24 hours, glutathione depleted
Method: Lipid peroxidation in CEM leukemia cells was detected by utilizing the oxidant-sensitive lipophilic probe C11 BODIPY^581/591. Briefly, CEM cells (5×10^5 cell/mL) were treated with the test compounds at final concentrations of 1 and 2.5 μM, and incubated at 37° C. for 4 or 24 h in a humidified atmosphere containing 5% CO2 in air. Cells were treated with 500 nM C11 BODIPY^581/591 in phenol red-free RPMI-1640 media and incubated at 37° C. in the dark for 30 minutes. The cells were washed twice with phosphate buffered saline and oxidative stress was induced with 5 mM DEM in phenol red-free RPMI-1640 media for 90 minutes. Treated cells were collected by centrifugation at 300×g for 3 minutes and then washed twice with phosphate buffered saline. Cells were resuspended in 250 μL of phosphate buffered saline and were analyzed by FACS (FACS Calibur flow cytometer, Becton Dickinson) to monitor the change in intensity of the C11 BODIPY^581/591-green (oxidized) fluorescence signal.

Human CEM leukemia cells = assay: Live/Dead Viability/Cytotoxicity flow cytometry assay; type: cell-based; conditions: overnight incubation, then DEM 3 hours
Method: Cell viability and cytotoxicity were determined by simultaneous staining live and dead cells using a two-color fluorescence assay, the Live/Dead® Viability/Cytotoxicity Kit (Molecular Probes). This assay is used to measure two recognized parameters of cell viability, intracellular esterase activity and plasma integrity. The membrane-impermeant DNA dye ethidium homodimer-1 (EthD-1) was used to identify dead cells whose plasma membrane integrity was disrupted. The membrane-permeant dye calcein-AM was used to label live cells. It penetrates into the cells where it is metabolized by cytoplasmic esterases and becomes a fluorescent but membrane-impermeant probe which is retained in viable cells. Human CEM leukemia cells were incubated overnight in RPMI medium (control) and in the presence of test compound and then treated with DEM for 3 hours. Cells were stained with 0.2 μM calcein-AM and 0.4 μM EthD-1. After 15 minutes, flow cytometry analysis was carried out using excitation at 488 nm. The green-fluorescent (539 nm) FL1-H channel, live-cell population appears in the lower right quadrant and the red-fluorescent (585 nm) FL2-H channel dead-cell population appears in the upper left quadrant (FIG. 11). In each analysis, 10,000 events were recorded. Results obtained were verified in three independent experiments.

Structure (SMILES): COc1nc(N(C)C)nc(CCCCCCCCCCO)c1O [Compound D, 2-(dimethylamino)-4-(10-hydroxydecyl)-6-methoxypyrimidin-5-ol]
- maintaining mitochondrial membrane potential Δψm (CEM leukemia cells [1]): the most effective in maintaining mitochondrial membrane potential; also recorded: very favorable properties
- suppression of ROS production (DCF fluorescence) (CEM cells [2]; pretreatment 0.5, 1 or 5 μM, DEM): most effective compound in suppressing ROS; also recorded: very effective in suppressing ROS
- maintaining cell viability (trypan blue exclusion) (CEM cells [3]): quite effective in maintaining cell viability following DEM treatment, with D being the most effective; also recorded: superior to idebenone in maintaining the viability of DEM-treated cells

Structure (SMILES): Cc1nc(N(C)C)nc(C)c1O [compound 12, 2-N,N-dimethylamino-5-hydroxy-4,6-dimethylpyrimidine]
- quenching of lipid peroxidation (retention of C11-BODIPY581/591 fluorescence) [4]: less active than its counterpart compound A

Structure (SMILES): CC(=O)Oc1c(C)nc2c(c1CC[C@](C)(O)CCC[C@H](C)CCC[C@H](C)CCCC(C)C)CCN2C [compound 35, 4-((3R,7R,11R)-3-hydroxy-3,7,11,15-tetramethylhexadecyl)-1,6-dimethyl-2,3-dihydro-1H-pyrrolo[2,3-b]pyridine-5-yl acetate]
- maintaining cell viability (trypan blue exclusion) (CEM cells [3]): both effective in maintaining cell viability following treatment with DEM, with the acetate of compound C being somewhat more effective

Structure (SMILES): Cc1nc2c(c(C)c1O)CCN2C [compound C redox core, 1,4,6-trimethyl-2,3-dihydro-1H-pyrrolo[2,3-b]pyridin-5-ol, reference compound]
- protection against lipid peroxidation in cells (C11-BODIPY581/591 green fluorescence) (CEM leukemia cells [5]): no protection
- protection against ROS production (DCF fluorescence) (CEM cells [2]): no protection
- quenching of lipid peroxidation (retention of C11-BODIPY581/591 fluorescence) ([4]; listed as 1,4,6-trimethyl-2,3-dihydro-1H-pyrrolo[2,3-b]pyridin-5-ol): much less effective in the same assay system
- quenching of lipid peroxidation (retention of C11-BODIPY581/591 fluorescence) ([4]; listed as Compound C redox core): less effective than compound C itself
- maintaining cell viability (trypan blue exclusion) (CEM cells [3]): quite ineffective
- maintaining cell viability (Live/Dead kit, flow cytometry) (Human CEM leukemia cells): quite ineffective

Structure (SMILES): Cc1c(C)c2c(c(C)c1O)CCC(C)(C(=O)O)O2 (stereo not shown) [trolox, reference compound]
- protection against lipid peroxidation in cells (C11-BODIPY581/591 green fluorescence) (CEM leukemia cells [5]): no protection
- protection against ROS production (DCF fluorescence) (CEM cells [2]): no protection
- maintaining cell viability (trypan blue exclusion) (CEM cells [3]): quite ineffective
- maintaining cell viability (Live/Dead kit, flow cytometry) (Human CEM leukemia cells): quite ineffective

Further lines, with some results ahead:

- melting point: 80 to 81 °C
Structure (SMILES): COc1cc(C)c(O)c(CCCCCCCCCCO)n1 [Compound F, 2-(10-hydroxydecyl)-6-methoxy-4-methylpyridin-3-ol]

- melting point: 61 to 62 °C
Structure (SMILES): CCCCCc1nc(N(C)C)nc(C)c1O [Compound H, 2-(dimethylamino)-4-methyl-6-pentylpyrimidin-5-ol]

- melting point: 71 to 72 °C
Structure (SMILES): CCCCCCCCCCc1nc(N(C)C)nc(C)c1O [Compound I, 4-decyl-2-(dimethylamino)-6-methylpyrimidin-5-ol]
- suppression of ROS (DCFH-DA) (CEM cells [2]): most effective compounds at suppressing ROS in this assay; also recorded: especially effective

- melting point: 86 to 87 °C
Structure (SMILES): CCCCCCCCCCCCCCCCc1nc(N(C)C)nc(C)c1O [Compound J, 2-(dimethylamino)-4-hexadecyl-6-methylpyrimidin-5-ol]
- suppression of ROS (DCFH-DA) (CEM cells [2]): most effective compounds at suppressing ROS in this assay; also recorded: especially effective

- melting point: 103 to 104 °C
Structure (SMILES): Cc1nc(N)nc(CCCCCCCCCCO)c1O [Example 10, 2-amino-4-(10-hydroxydecyl)-6-methylpyrimidin-5-ol]
